Legend:
[1] = tested on: lethal effect of 125 mgm/kg of pentylene tetrazole; assay: Pentetrazole antagonism, mouse; format: in vivo, mouse (albino, NMRI); conditions: po, 1 h, peroral, suspension in olive oil, 125 mgm/kg pentylene tetrazole i.p. one hour after test compound, graphically determined
Description: (§1) Albino mice (NMRI) having a body weight of 20 to 25 gm or albino rats (FW49) having a body weight of 140 to 200 gm were used for the tests, and the test compound was in all cases administered perorally in suspension in olive oil by means of an esophageal sound.
(§2) The pentylene tetrazole is administered intraperitoneally one hour after administration of the test compound [see M. I. Gluckmann, Curr. Ther. Res. 7, 721 (1965)].
(§3) The values shown in the following table are graphically determined.

Acute toxicity = assay: Acute toxicity; design: species or system mouse (albino, NMRI); conditions: in vivo, po; mouse; peroral, suspension in olive oil; graphically determined
Description: as §1
Determination of the median lethal dose (LD50), i.e. the dose which causes 50% of the test animals to die [Litchfield and Wilcoxon, J. Phamacol. Exper. Therap. 96,99 (1949)].
as §3

[2] = tested on: test animals in a conflict situation; assay: Conflict situation (inhibition of passive avoidance); format: in vivo, rat (albino, FW49); conditions: po; rat; peroral, suspension in olive oil; dose at which animals depress lever ten times despite signalled shock; graphically determined
Description: as §1
Determination of the dose of the test compound (DT10) at which the test animals in a conflict situation depress a lever ten times to receive a food pellet, even though a simultaneous visual signal indicates to them that they will also receive an electrical shock at the same time [see J. Geller, Arch. Int. Pharmacodyn. 149, 243 (1964)].
as §3

[3] = tested on: lethal effect of 125 mgm/kg of pentylene tetrazole; assay: Pentetrazole antagonism, rat; format: in vivo, rat (albino, FW49); conditions: po, 1 h, peroral, suspension in olive oil, 125 mgm/kg pentylene tetrazole i.p. one hour after test compound, graphically determined
Description: as §1, §2, §3

Compound: O=c1[nH]nc2n1-c1sc(Br)cc1C(c1ccccc1Cl)=NC2 [Example 1, 8-Bromo-6-(o-chloro-phenyl)-4H-s-triazolo[3,4-c]thieno-[2,3-e]1,4-diazepin-1-one]
- ED50 [1]: 0.37 mg/kg
- LD50 (Acute toxicity): > 2000 mg/kg
- ED (DT10 (ten lever presses)) [2]: 1.25 mg/kg
- ED50 [3]: 1.9 mg/kg
